ChEMBL document CHEMBL1201862, “PubChem BioAssay data set” (2004)
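Cultured in 96-well plates, cells were exposed to test compound for 48 hours across five concentrations. GI50 marks 50% less growth.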 Calls of active or inactive are those of the source. Cut-off read from the data, not from the text of the source: active = GI50 up to about 1.1 µM and inactive = higher.

Experiments:
Test in all cases: NCI tumour cell line growth inhibition, 48 h
COLO 205 = system: COLO 205
HCT-116 = system: HCT-116
HCT-15 = system: HCT-15
K562 = system: K562
KM12 = system: KM12
M14 = system: M14
MOLT-4 = system: MOLT-4
Malme-3M = system: Malme-3M
NCI-H23 = system: NCI-H23
NCI-H460 = system: NCI-H460
NCI-H522 = system: NCI-H522
NCI/ADR-RES = system: NCI/ADR-RES
OVCAR-4 = system: OVCAR-4
OVCAR-8 = system: OVCAR-8
RPMI-8226 = system: RPMI-8226
RXF 393 = system: RXF 393
SK-MEL-2 = system: SK-MEL-2
SNB-75 = system: SNB-75
A498 = system: A498
NCI-H226 = system: NCI-H226

SMILES	GI50 (COLO 205)	GI50 (HCT-116)	GI50 (HCT-15) [µM]	GI50 (K562)	GI50 (KM12)	GI50 (M14)	GI50 (MOLT-4)	GI50 (Malme-3M)	GI50 (NCI-H23)	GI50 (NCI-H460)	GI50 (NCI-H522)	GI50 (NCI/ADR-RES)	GI50 (OVCAR-4)	GI50 (OVCAR-8)	GI50 (RPMI-8226)	GI50 (RXF 393)	GI50 (SK-MEL-2)	GI50 (SNB-75)	GI50 (A498)	GI50 (NCI-H226)
Cc1cccc2nc3cccc(C(=O)NCCC[N+](C)(CCCNC(=O)c4cccc5nc6cccc(C)c6nc45)Cc4ccc([N+](=O)[O-])n4C)c3nc12	3.58 µM (inactive)	0.0615 µM (active)	2.4	0.407 µM (active)	2.26 µM (inactive)	> 31.3 µM (inactive)	0.377 µM (active)	35.9 µM (inactive)	> 67.1 µM (inactive)	0.405 µM (active)	4.13 µM (inactive)	> 32.3 µM (inactive)	27.3 µM (inactive)	0.49 µM (active)	1.33 µM (inactive)	> 100 µM (inactive)	8.32 µM (inactive)	> 100 µM (inactive)	–	–
N=C(N)NCCCC(NC(=O)OCCCCn1ccc(N)nc1=O)C(=O)O (stereo unspecified)	> 100 µM (inactive)	> 100 µM (inactive)	> 100	> 100 µM (inactive)	> 100 µM (inactive)	> 100 µM (inactive)	> 100 µM (inactive)	–	> 100 µM (inactive)	> 100 µM (inactive)	–	> 100 µM (inactive)	> 100 µM (inactive)	–	> 100 µM (inactive)	> 100 µM (inactive)	> 100 µM (inactive)	> 100 µM (inactive)	> 100 µM (inactive)	4.26 µM (inactive)
CCN1CCC(O)(c2ccc(Oc3ccc(F)cc3)cc2)C(C(=O)c2ccc(Oc3ccc(F)cc3)cc2)C1 (stereo unspecified)	16.6 µM (inactive)	13.6 µM (inactive)	11.5	12.7 µM (inactive)	4.42 µM (inactive)	16.9 µM (inactive)	14 µM (inactive)	15.4 µM (inactive)	14.8 µM (inactive)	–	–	10.3 µM (inactive)	15 µM (inactive)	15 µM (inactive)	2.79 µM (inactive)	12.2 µM (inactive)	17.2 µM (inactive)	15.5 µM (inactive)	–	13.6 µM (inactive)
N#CC(NC12CC3CC(CC(C3)C1)C2)c1ccccc1 (stereo unspecified)	> 100 µM (inactive)	> 100 µM (inactive)	> 100	> 100 µM (inactive)	> 100 µM (inactive)	> 100 µM (inactive)	> 100 µM (inactive)	> 100 µM (inactive)	> 100 µM (inactive)	> 100 µM (inactive)	> 100 µM (inactive)	> 100 µM (inactive)	> 100 µM (inactive)	> 100 µM (inactive)	> 100 µM (inactive)	> 100 µM (inactive)	> 100 µM (inactive)	> 100 µM (inactive)	–	> 100 µM (inactive)
C/C(=N\NC(N)=S)c1cccs1.OB(O)c1ccccc1	> 100 µM (inactive)	> 100 µM (inactive)	> 100	> 100 µM (inactive)	> 100 µM (inactive)	> 100 µM (inactive)	> 100 µM (inactive)	> 100 µM (inactive)	> 100 µM (inactive)	> 100 µM (inactive)	70.6 µM (inactive)	> 100 µM (inactive)	> 100 µM (inactive)	> 100 µM (inactive)	> 100 µM (inactive)	–	–	> 100 µM (inactive)	> 100 µM (inactive)	> 100 µM (inactive)
C=CCN1CCN([C@H](c2ccc(C(=O)N(CC)CC)cc2)c2cccc(OC)c2)CC1	> 25 µM (inactive)	> 25 µM (inactive)	> 25	–	> 25 µM (inactive)	> 25 µM (inactive)	> 25 µM (inactive)	> 25 µM (inactive)	> 25 µM (inactive)	–	> 25 µM (inactive)	> 25 µM (inactive)	> 25 µM (inactive)	> 25 µM (inactive)	> 25 µM (inactive)	–	> 25 µM (inactive)	–	> 25 µM (inactive)	> 25 µM (inactive)
O=C1c2ccc3c4ccc5c6c(ccc(c7ccc(c2c37)C(=O)N1CCN1CCCCC1)c64)C(=O)N(CCN1CCCCC1)C5=O	> 100 µM (inactive)	> 100 µM (inactive)	> 100	> 100 µM (inactive)	> 100 µM (inactive)	> 100 µM (inactive)	> 100 µM (inactive)	–	> 100 µM (inactive)	> 100 µM (inactive)	–	> 100 µM (inactive)	> 100 µM (inactive)	> 100 µM (inactive)	> 100 µM (inactive)	> 100 µM (inactive)	> 100 µM (inactive)	–	> 100 µM (inactive)	> 100 µM (inactive)
COc1cc(-c2oc3c(OC)c(O)c(OC)c(O)c3c(=O)c2OC)cc(OC)c1OC	83.8 µM (inactive)	68.1 µM (inactive)	41.7	36.7 µM (inactive)	> 100 µM (inactive)	14.1 µM (inactive)	59.6 µM (inactive)	> 100 µM (inactive)	> 100 µM (inactive)	39 µM (inactive)	17.4 µM (inactive)	62.5 µM (inactive)	> 100 µM (inactive)	53.7 µM (inactive)	31.8 µM (inactive)	–	77.1 µM (inactive)	20.8 µM (inactive)	51.2 µM (inactive)	> 100 µM (inactive)
